The source of these data is patent US8633199B2, “Medicine consisting of concomitant use or combination of DPP-IV inhibitor and other diabetic medicine” (Sanwa Kagaku Kenkyusho Co., Ltd., priority 2008, dated 2014).

SMILES strings stand for the structures.

Format in all cases: in vivo, rat
For one assay, the system named is ZDF rats. Nature of the assay: Oral corn starch loading test, plasma active GLP-1, glucose and insulin. The following applies: oral compound (I) 3 mg/kg, Metformin 300 mg/kg, 15 min before corn starch loading, AUC 0-180 min; for increase of the concentration of the active GLP-1 in the plasma (AUC of change): FIG. 5; for plasma glucose elevation (AUC): FIG. 6. The procedure: An operation to insert a polyurethane catheter was performed on the right jugular vein of a ZDF rat (13 weeks old, male, Charles River Laboratories Japan, Inc.), and experiments were performed in the following four groups. (1) Control group: purified water was administered at a ratio of 5 ml/kg (2) Compound (I) group: the compound (I) dissolved in purified water was administered at a dose of 3 mg/kg (5 ml/kg) […] Metformin dissolved in purified water was administered at a dose of 300 mg/kg (5 ml/kg) (4) Concomitant use group: the compound (I) and Metformin dissolved in purified water were administered at respective doses of 3 mg/kg (5 ml/kg) and 300 mg/kg (5 ml/kg) […] Blood was collected from the catheter immediately before administration and after administration of corn starch, and centrifuged at 4° C., 3000 rpm for 10 minutes to obtain plasma. The concentration of the active GLP-1 in the obtained blood plasma was measured by ELISA (GLUCAGON-LIKE PEPTIDE-1 (ACTIVE) ELISA KIT, LINCO Research, Inc., US), the plasma glucose and insulin concentrations of the obtained plasma was measured by Glucose C2 (Wako Pure Chemical Industries, Ltd., Japan) and ELISA (Rat Insulin ELISA Kit, Shibayagi, Co., Ltd., Japan), respectively. Based on the measured concentration of the active GLP-1 in the plasma, the amount of change relative to the concentration immediately before starch administration was obtained. Based on the amount of change relative to the plasma active GLP-1, glucose and insulin concentrations, AUC from immediately before the administration of starch to 180 minutes after the administration was calculated. The result of the plasma active GLP-1 concentration is shown in FIG. 5, the result of the plasma glucose concentration is shown in FIG. 6 and the result of the plasma insulin concentration is shown in FIG. 7.

A further assay deals with Wistar rats. In words: Oral corn starch loading test, plasma GIP (ELISA). The note with it: oral compound (I) 3 mg/kg, Metformin 300 mg/kg, 30 min before corn starch loading, AUC 0-180 min, FIG. 8. How it is done:
Effects of compound (I) alone, Metformin alone and concomitant use of compound (I) and Metformin on concentration of GIP in plasma during oral corn starch loading test in Slc: Wistar/ST rats (hereinafter abbreviated as Wistar rats) An operation to insert a polyurethane catheter was performed on the right jugular vein of a Wistar rat (9 weeks old, male, Japan SLC, Inc.), and experiments were performed in the following four groups. (1) Control group: purified water was administered at a ratio of 5 ml/kg (2) Compound (I) group: the compound (I) dissolved in purified water was administered at a dose of 3 mg/kg (5 ml/kg) […] Metformin dissolved in purified water was administered at a dose of 300 mg/kg (5 ml/kg) (4) Concomitant use group: the compound (I) and Metformin dissolved in purified water were administered at respective doses of 3 mg/kg (5 ml/kg) and 300 mg/kg (5 ml/kg) […] Blood was collected from the catheter immediately before administration and after administration of corn starch, and centrifuged at 4° C., 3000 rpm for 10 minutes to obtain plasma. The concentration of the GIP in the obtained plasma was measured by ELISA (RAT/MOUSE GIP (TOTAL) ELISA KIT, LINCO Research, Inc., US). Based on the measured GIP concentration, AUC from immediately before the administration of starch to 180 minutes after the administration was calculated.
For orientation: An ELISA detects its analyte on a solid surface through an enzyme-linked reagent.

Assay [1] concerns Zucker fatty rats. In words: Oral sucrose loading test, plasma active GLP-1 (ELISA). The note with it: oral 3 mg/kg each drug 15 min before sucrose loading, AUC 0-120 min, FIG. 1. How it is done: Effects of compound (I) alone, Miglitol alone and concomitant use of compound (I) and Miglitol on plasma concentration of active GLP-1 during oral sucrose loading test in Slc: Zucker-fa/fa rats (hereinafter abbreviated as Zucker fatty rats)
An operation to insert a polyurethane catheter was performed on the right jugular vein of a Zucker fatty rat (9 weeks old, male, Japan SLC, Inc.) which is an obesity-insulin resistant model, and experiments were performed in the following four groups.
(§1) (1) Control group: purified water was administered at a ratio of 5 ml/kg
(§2) (2) Compound (I) group: the compound (I) dissolved in purified water was administered at a dose of 3 mg/kg (5 ml/kg)
(§3) (3) Miglitol group: Miglitol dissolved in purified water was administered at a dose of 3 mg/kg (5 ml/kg)
(§4) (4) Concomitant use group: the compound (I) and Miglitol dissolved in purified water were administered at respective dose of 3 mg/kg (5 ml/kg)
Purified water, the compound (I) and Miglitol were orally administered respectively to the Zucker fatty rats fasted overnight in each group as described in (1) to (4), and after 15 minutes, a 30% aqueous sucrose solution was administered at a ratio of 10 ml/kg. […] The concentration of an active GLP-1 in the obtained plasma was measured by an enzyme immunoassay (hereinafter abbreviated as ELISA) (GLUCAGON-LIKE PEPTIDE-1 (ACTIVE) ELISA KIT, LINCO Research, Inc., US). […]

Assay [2] deals with Zucker fatty rats. Nature of the assay: Liquid diet loading test, plasma GIP, glucose and insulin. The following applies: oral 3 mg/kg each drug 15 min before liquid diet loading; for increase in the plasma glucose concentration (AUC): AUC 0-60 min, FIG. 3; for increase in the GIP concentration in plasma (AUC, total GIP): AUC 0-120 min, FIG. 2. The procedure:
Effects of compound (I) alone, Miglitol alone and concomitant use of compound (I) and Miglitol on GIP, glucose and insulin concentrations in plasma during liquid diet loading test in Crlj: ZUC-Lepr^fa Genotype: fa/fa rats (hereinafter abbreviated as Zucker fatty rats)
An operation to insert a polyurethane catheter was performed on the right jugular vein of a Zucker fatty rat (8 weeks old, male, Charles River Laboratories Japan, Inc.), which is an obesity and insulin-resistant model, and experiments were performed in the following four groups.
as §1, §2, §3, §4
Purified water, the compound (I) and Miglitol were orally administered respectively to the Zucker fatty rats fasted overnight in each group as described in (1) to (4), and after 15 minutes, a liquid diet (trade mark: ENSURE H, Meiji Dairies Corporation, Japan) was administered at a ratio of 10 ml/kg to carry out a diet loading test. Blood was collected from the catheter immediately before loading and after loading of the liquid diet, and centrifuged at 4° C., 3000 rpm for 10 minutes to obtain plasma. The GIP concentration in the obtained plasma was measured by an ELISA (RAT/MOUSE GIP (TOTAL) ELISA KIT, LINCO Research, Inc., US), and the plamsa glucose and insulin concentrations was measured by Glucose C2 (Wako Pure Chemical Industries, Ltd., Japan) and ELISA (Rat Insulin ELISA Kit, Shibayagi, Co., Ltd., Japan), respectively. Based on the measured GIP concentration in plasma, AUC from immediately before the loading of the liquid diet to 120 minutes after the loading was calculated. Based on the measured plasma glucose and insulin concentrations, AUC from immediately before the loading of the liquid diet to 60 minutes after the loading was calculated. […] The result of the GIP concentration in plasma is shown in FIG. 2, the result of the plasma glucose level is shown in FIG. 3 and the result of the plasma insulin concentration is shown in FIG. 4.

Take `CN(C)C(=N)N=C(N)N` [Metformin]: in the assay on ZDF rats, the “increase of the concentration of the active GLP-1 in the plasma (AUC of change)” value (“increase of the concentration … (AUC of change)” for short) was “no significant difference” and the “plasma glucose elevation (AUC)” value is recorded as “significantly suppressed”. For the same molecule, the “increase in the concentration of GIP in plasma (AUC, total GIP)” value in the assay on Wistar rats is on record as “significantly suppressed”.

As for `OCCN1C[C@H](O)[C@@H](O)[C@H](O)[C@H]1CO` [Miglitol], the “increase of the concentration … (AUC of change)” value in the assay on Zucker fatty rats [1] is given as “no significant difference”. In addition, in the assay on Zucker fatty rats [2], the “increase in the plasma glucose concentration (AUC)” value is “no significant difference” and the “increase in the GIP concentration in plasma (AUC, total GIP)” value is given as “showed a tendency of suppressing”.

On to `Cc1cc2ncc(C(=O)NCC(C)(C)NCC(=O)N3CCC[C@H]3C#N)cn2n1` [compound (I), (S)—N-(2-(2-(2-cyanopyrrolidin-1-yl)-2-oxoethylamino)-2-methylpropyl)-2-methylpyrazolo[1,5-a]pyrimidine-6-carboxamide], for which the “increase of the concentration … (AUC of change)” value with Zucker fatty rats [1] is reported as “increased the concentration significantly”. In addition, in the assay on Zucker fatty rats [2], the “increase in the plasma glucose concentration (AUC)” value is on record as “no significant difference” and the “increase in the GIP concentration in plasma (AUC, total GIP)” value is reported as “no change”. In the assay on ZDF rats, the “increase of the concentration … (AUC of change)” value is given as “increased the concentration significantly” and the “plasma glucose elevation (AUC)” value is given as “no significant difference”. Further, the “increase in the concentration of GIP in plasma (AUC, total GIP)” value in the assay with Wistar rats is “no change”.
